Legend:
Rodentia sp. = assay: Analgesic activity in ip dosed formalin-induced pain rodent model; assay type: functional
[1] = Toxicity in ip dosed rodent; assay type: organism-based; conditions: rodentia, in vivo
[2] = Therapeutic index, ratio of LD50 for toxicity in ip dosed rodent to ED50 for analgesic activity in ip dosed rodent; assay type: organism-based; conditions: rodentia, in vivo, read-out: Ratio LD50/ED50
Mu-type opioid receptor [3] = biological target: T1, Mu-type opioid receptor (Homo sapiens, UniProt P35372); assay: Binding affinity to mu opioid receptor (unknown origin) assessed as inhibition constant in presence of Levorphanol
Mus musculus = assay: Antiallodynic activity in ip dosed MIA induced mechanical allodynia mouse model; assay type: functional
Mu-type opioid receptor [4] = biological target: T1, Mu-type opioid receptor; assay: Displacement of [3H]-DAMGO from human mu opioid receptor expressed in CHO-K1 cells membrane incubated for 60 mins by MicroBeta scintillation counter assay; assay type: cell membranes
[5] = biological target: Sigma non-opioid intracellular receptor 1 (Homo sapiens, UniProt Q99720); assay: Displacement of [3H](+)-pentazocine from human sigma 1 receptor expressed in HEK293 cells membrane incubated for 120 mins by MicroBeta scintillation counter assay; assay type: cell membranes
[6] = Metabolic stability in mini-pig liver microsomes assessed as compound remaining after 1 hr; assay type: ADME, Sus scrofa domesticus, Microsome; conditions: read-out: Stability
Rattus norvegicus = assay: Analgesic activity in ig dosed formalin-induced pain Sprague-Dawley rat model; assay type: functional; conditions: po
[7] = Toxicity in ig dosed Sprague-Dawley rat; assay type: organism-based; conditions: in vivo, po
[8] = Therapeutic index, ratio of LD50 for toxicity in ig dosed Sprague-Dawley rat to ED50 for analgesic activity in ig dosed Sprague-Dawley rat; assay type: organism-based; conditions: in vivo, po, read-out: Ratio LD50/ED50

Sigma non-opioid intracellular receptor 1, sequence (Q99720 whole entry): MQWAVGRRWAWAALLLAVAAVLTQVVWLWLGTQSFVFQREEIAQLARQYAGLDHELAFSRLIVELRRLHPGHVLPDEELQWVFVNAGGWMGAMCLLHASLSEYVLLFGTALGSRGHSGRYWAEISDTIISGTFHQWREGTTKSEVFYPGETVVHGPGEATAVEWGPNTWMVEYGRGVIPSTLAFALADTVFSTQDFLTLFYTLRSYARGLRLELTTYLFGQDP
T1 sequence (P35372 whole entry): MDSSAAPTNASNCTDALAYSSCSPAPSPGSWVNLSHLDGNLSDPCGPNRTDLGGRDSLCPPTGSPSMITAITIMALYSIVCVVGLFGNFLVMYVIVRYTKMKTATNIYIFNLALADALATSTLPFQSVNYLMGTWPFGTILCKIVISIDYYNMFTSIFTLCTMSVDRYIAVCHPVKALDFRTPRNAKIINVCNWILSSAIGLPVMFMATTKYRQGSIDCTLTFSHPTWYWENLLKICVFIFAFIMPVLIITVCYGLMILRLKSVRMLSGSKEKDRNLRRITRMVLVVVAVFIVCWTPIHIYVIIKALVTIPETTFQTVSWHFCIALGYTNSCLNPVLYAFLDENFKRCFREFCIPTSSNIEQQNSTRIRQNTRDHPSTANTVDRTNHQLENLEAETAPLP

Compound: Cc1cc(OCCN2CCOCC2)nn1-c1ccc2ccccc2c1
- ED50 (Rodentia sp.): 33.2 mg/kg
- LD50 [1]: 397 mg/kg
- selectivity ratio [2]: 12

Compound: C[C@@H]1[C@@H]2Cc3ccc(O)cc3[C@]1(C)CCN2CCc1ccccc1
- Ki (Mu-type opioid receptor [3]): 55 nM

Compound: C[C@H]1[C@H]2Cc3ccc(O)cc3[C@@]1(C)CCN2CCc1ccccc1
- Ki (Mu-type opioid receptor [3]): 0.2 nM

Compound: CCC(=O)N(CC1(N2CCN(CC(C)C)CC2)CCOCC1)c1cccc(C(F)(F)F)n1
- ED50 (Mus musculus): 31.9 mg/kg

Compound: CC(=O)Oc1cccc(C2CCN(Cc3cn(-c4ccccc4)nn3)CC2)c1
- Ki (Mu-type opioid receptor [4]): < 100 nM
- Ki [5]: < 100 nM

Compound: [2H]C([2H])([2H])C([2H])([2H])N1CC2(CCN(C([2H])([2H])C([2H])([2H])c3cc(F)ccc3F)CC2)O[C@H](C)C1=O
- remaining at 1 h [6]: 64%

Compound: CC(C)S(=O)(=O)Nc1cccc(C2CCN(Cc3cn(-c4ccccc4)nn3)CC2)c1
- Ki (Mu-type opioid receptor [4]): < 100 nM
- Ki [5]: < 100 nM

Compound: CN1CCc2ccccc2C12CCN(CCc1ccccc1)CC2
- Ki (Mu-type opioid receptor [4]): < 100 nM
- Ki [5]: < 100 nM

Compound: CC(C)S(=O)(=O)Nc1cccc(N2CCN(Cc3cn(-c4ccccc4F)nn3)CC2)c1
- Ki (Mu-type opioid receptor [4]): < 100 nM
- Ki [5]: < 100 nM

Compound: CC(C)S(=O)(=O)Nc1cccc(N2CCN(Cc3cn(-c4ccccc4)nn3)CC2)c1
- Ki (Mu-type opioid receptor [4]): < 100 nM
- Ki [5]: < 100 nM

Compound: COc1ccc2c(c1)CCN(C)C21CCN(CCc2ccccc2)CC1
- Ki (Mu-type opioid receptor [4]): < 100 nM
- Ki [5]: < 100 nM

Compound: CCOCCN1CCCCC(CC)(c2cccc(O)c2)C1 (stereo unspecified)
- Ki (Mu-type opioid receptor [4]): < 100 nM
- Ki [5]: < 100 nM

Compound: CCC(=O)N(CCN1CCC(N(C)Cc2ccccc2)C1)c1ccccc1 (stereo unspecified)
- Ki [5]: 100 nM

Compound: O=C(c1ccccn1)C1(N2CCN(Cc3ccccc3)CC2)CCOC2(CCCC2)C1 (stereo unspecified)
- Ki (Mu-type opioid receptor [4]): < 100 nM
- Ki [5]: < 100 nM

Compound: CCN1CC2(CCN(CCc3ccccc3)CC2)c2ccccc2C1=O
- Ki (Mu-type opioid receptor [4]): 100 nM
- Ki [5]: 100 nM

Compound: CN(CCOC(c1cccs1)c1ccnn1C)Cc1ccccc1 (stereo unspecified)
- Ki (Mu-type opioid receptor [4]): < 100 nM
- Ki [5]: < 100 nM

Compound: Clc1ccc(-c2noc(CCCCN3CCCCC3)n2)c(Cl)c1
- ED50 (Rattus norvegicus): 52.5 mg/kg
- LD50 [7]: 957 mg/kg
- selectivity ratio [8]: 18.2

Compound: Oc1cccc(C2CCN(Cc3cn(-c4ccccc4)nn3)CC2)c1
- Ki (Mu-type opioid receptor [4]): < 100 nM
- Ki [5]: < 100 nM

Compound: CN1CC2(CCN(CCc3ccccc3)CC2)c2ccccc2C1=O
- Ki (Mu-type opioid receptor [4]): 100 nM
- Ki [5]: 100 nM

Compound: CN(CCOC(c1cccs1)c1ccnn1C)CCc1ccccc1 (stereo unspecified)
- Ki (Mu-type opioid receptor [4]): < 100 nM
- Ki [5]: < 100 nM

Compound: O=C(c1ccccc1)C1(N2CCN(Cc3ccccc3)CC2)CCOC2(CCCC2)C1 (stereo unspecified)
- Ki (Mu-type opioid receptor [4]): < 100 nM
- Ki [5]: < 100 nM

Compound: O=C(c1cccc(C(F)(F)F)n1)C1(N2CCN(Cc3ccccc3)CC2)CCOC2(CCCC2)C1 (stereo unspecified)
- Ki (Mu-type opioid receptor [4]): < 100 nM
- Ki [5]: < 100 nM

From ChEMBL document CHEMBL5230145, “Bifunctional μ opioid and σ1 receptor ligands as novel analgesics with reduced side effects” (Eur J Med Chem, 2021)
